These results are taken from patent US7888363B2, “Viral polymerase inhibitors” (Boehringer Ingelheim International GmbH, priority 2003, dated 2011).

Where only a bound is given, the exact number is not on record here.

hepatitis C virus RNA dependant polymerase (NS5B), sequence (P26663 2420-3010): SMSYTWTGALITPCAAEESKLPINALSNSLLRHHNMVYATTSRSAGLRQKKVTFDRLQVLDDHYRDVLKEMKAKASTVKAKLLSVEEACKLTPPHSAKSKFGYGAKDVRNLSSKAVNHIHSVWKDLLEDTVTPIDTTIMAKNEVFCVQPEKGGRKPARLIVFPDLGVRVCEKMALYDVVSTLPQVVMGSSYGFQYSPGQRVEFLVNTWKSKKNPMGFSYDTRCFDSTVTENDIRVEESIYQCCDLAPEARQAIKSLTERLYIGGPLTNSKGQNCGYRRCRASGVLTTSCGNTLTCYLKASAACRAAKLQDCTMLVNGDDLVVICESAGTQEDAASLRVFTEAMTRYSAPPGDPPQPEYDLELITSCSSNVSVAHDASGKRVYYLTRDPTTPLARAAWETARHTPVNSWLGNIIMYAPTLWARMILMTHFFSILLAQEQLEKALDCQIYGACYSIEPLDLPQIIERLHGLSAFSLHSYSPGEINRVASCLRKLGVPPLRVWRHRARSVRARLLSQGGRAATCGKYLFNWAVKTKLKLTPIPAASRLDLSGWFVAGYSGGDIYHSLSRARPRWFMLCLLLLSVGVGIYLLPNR

This assay addresses hepatitis C virus RNA dependant polymerase (NS5B) (Hepatitis C virus genotype 1b, UniProt P26663). As to the kind of experiment: Inhibition of NS5B RNA dependent RNA polymerase activity. The assay is classed as biochemical. To be noted: Table 4; class ranges. As for the experimental part: A suitable assay is described in the examples.
Inhibition of NS5B RNA Dependent RNA Polymerase Activity
The compounds of the invention were tested for inhibitory activity against the hepatitis C virus RNA dependant polymerase (NS5B), according to protocol described in WO 03/010141
`CN1CCN(C(=O)Cn2c(-c3ccccn3)c(C3CCCCC3)c3ccc(C(N)=O)cc32)CC1` [Example 4001] had an IC50 of 1000 to 10000 nM.
Regarding `COc1ccc(CNC(=O)c2ccc3c(C4CCCCC4)c(-c4ccccn4)n(CC(=O)N4CCN(C)CC4)c3c2)cc1OC` [Example 4002], the IC50 was 200 to 1000 nM.
The same measure for `COc1ccc(CNC(=O)c2ccc3c(C4CCCCC4)c(-c4ccoc4)n(CC(=O)N4CCN(C)CC4)c3c2)cc1OC` [Example 4003]: < 200 nM; for `COc1ccc(CNC(=O)c2ccc3c(C4CCCCC4)c(-c4ccoc4)n(CC(=O)N4CCC(N5CCCC5)CC4)c3c2)cc1OC` [Example 4004]: < 200 nM; for `C[C@@H](NC(=O)c1ccc2c(C3CCCCC3)c(-c3ccoc3)n(CC(=O)N3CCC(N4CCCC4)CC3)c2c1)c1ccccc1` [Example 4005]: < 200 nM.
The figure for `COc1ccc(CNC(=O)c2ccc3c(C4CCCCC4)c(-c4ccoc4)n(CC(=O)N4CCOCC4)c3c2)cc1OC` [Example 4006] is < 200 nM.
In turn, `C[C@@H](NC(=O)c1ccc2c(C3CCCCC3)c(-c3ccoc3)n(CC(=O)N3CCOCC3)c2c1)c1ccccc1` [Example 4007] showed an IC50 of 200 to 1000 nM.
For the molecule `CN1CCN(C(=O)Cn2c(-c3ccoc3)c(C3CCCCC3)c3ccc(C(=O)NC4CCCC4)cc32)CC1` [Example 4008], the IC50 fell in the range of 200 to 1000 nM.
`CN1CCN(C(=O)Cn2c(-c3ccoc3)c(C3CCCCC3)c3ccc(C(=O)NCCC4CCCN4C)cc32)CC1` (stereo not shown) [Example 4009] gave an IC50 of 200 to 1000 nM.
`CCN1CCCC1CNC(=O)c1ccc2c(C3CCCCC3)c(-c3ccoc3)n(CC(=O)N3CCN(C)CC3)c2c1` (stereo not shown) [Example 4010] had an IC50 of 200 to 1000 nM.
The figure for `CN1CCN(C(=O)Cn2c(-c3ccoc3)c(C3CCCCC3)c3ccc(C(=O)NCc4ccco4)cc32)CC1` [Example 4011] is 200 to 1000 nM.
`CC(C)C(CO)NC(=O)c1ccc2c(C3CCCCC3)c(-c3ccoc3)n(CC(=O)N3CCN(C)CC3)c2c1` (stereo not shown) [Example 4012]: the IC50 lay in the range of 200 to 1000 nM.
The same measure for `CN1CCN(C(=O)Cn2c(-c3ccoc3)c(C3CCCCC3)c3ccc(C(=O)NCc4ccc5c(c4)OCO5)cc32)CC1` [Example 4013]: 200 to 1000 nM; for `CN1CCN(C(=O)Cn2c(-c3ccoc3)c(C3CCCCC3)c3ccc(C(=O)NCCN4CCOCC4)cc32)CC1` [Example 4014]: 200 to 1000 nM.
For the molecule `CN1CCN(C(=O)Cn2c(-c3ccoc3)c(C3CCCCC3)c3ccc(C(=O)NCc4ccccn4)cc32)CC1` [Example 4015], the IC50 is 200 to 1000 nM.
In turn, `CN1CCN(C(=O)Cn2c(-c3ccoc3)c(C3CCCCC3)c3ccc(C(=O)NCCc4ccccn4)cc32)CC1` [Example 4016] returned an IC50 of 200 to 1000 nM.
The same measure for `CN1CCN(C(=O)Cn2c(-c3ccoc3)c(C3CCCCC3)c3ccc(C(=O)NCc4cccnc4)cc32)CC1` [Example 4017]: 200 to 1000 nM; for `CN1CCN(C(=O)Cn2c(-c3ccoc3)c(C3CCCCC3)c3ccc(C(=O)NCc4ccncc4)cc32)CC1` [Example 4018]: 200 to 1000 nM.
Consider `CN1CCN(C(=O)Cn2c(-c3ccoc3)c(C3CCCCC3)c3ccc(C(=O)NC(C)(C)CO)cc32)CC1` [Example 4019], for which the IC50 lay in the range of 200 to 1000 nM.
The figure for `COCC(C)NC(=O)c1ccc2c(C3CCCCC3)c(-c3ccoc3)n(CC(=O)N3CCN(C)CC3)c2c1` (stereo not shown) [Example 4020] is 200 to 1000 nM; for `CN1CCN(C(=O)Cn2c(-c3ccoc3)c(C3CCCCC3)c3ccc(C(=O)NCc4ccccc4)cc32)CC1` [Example 4021] it is 200 to 1000 nM.
Molecule `CN1CCN(C(=O)Cn2c(-c3ccoc3)c(C3CCCCC3)c3ccc(C(=O)NCc4ccc(F)cc4)cc32)CC1` [Example 4022] displayed an IC50 of 200 to 1000 nM.
Molecule `CN1CCN(C(=O)Cn2c(-c3ccoc3)c(C3CCCCC3)c3ccc(C(=O)NCC(O)c4ccccc4)cc32)CC1` (stereo not shown) [Example 4023] came in with an IC50 of 200 to 1000 nM.
The figure for `CC(CNC(=O)c1ccc2c(C3CCCCC3)c(-c3ccoc3)n(CC(=O)N3CCN(C)CC3)c2c1)c1ccccc1` (stereo not shown) [Example 4024] is 1000 to 10000 nM.
Consider `CN(C)CCNC(=O)c1ccc2c(C3CCCCC3)c(-c3ccoc3)n(CC(=O)N3CCN(C)CC3)c2c1` [Example 4025], for which the IC50 was in the range of 200 to 1000 nM.
Consider `CN1CCN(C(=O)Cn2c(-c3ccoc3)c(C3CCCCC3)c3ccc(C(=O)NCCc4ccccc4)cc32)CC1` [Example 4026], for which the IC50 lay within 1000 to 10000 nM.
The figure for `CN1CCN(C(=O)Cn2c(-c3ccoc3)c(C3CCCCC3)c3ccc(C(=O)NC4(CO)CCCC4)cc32)CC1` [Example 4027] is 200 to 1000 nM.
In turn, `CNC(=O)c1ccc2c(C3CCCCC3)c(-c3ccoc3)n(CC(=O)N3CCN(C)CC3)c2c1` [Example 4028] gave an IC50 of 200 to 1000 nM.
Consider `CN1CCN(C(=O)Cn2c(-c3ccoc3)c(C3CCCCC3)c3ccc(C(=O)NCc4ccc(O)c(O)c4)cc32)CC1` [Example 4029], for which the IC50 was < 200 nM.
As to `COc1cc(CNC(=O)c2ccc3c(C4CCCCC4)c(-c4ccoc4)n(CC(=O)N4CCN(C)CC4)c3c2)ccc1O` [Example 4030], the concentration for half-maximal inhibition (IC50) is < 200 nM.
The molecule `CN1CCN(C(=O)Cn2c(-c3ccoc3)c(C3CCCCC3)c3ccc(C(=O)NCC(=O)c4ccccc4)cc32)CC1` [Example 4031] gave a concentration for half-maximal inhibition (IC50) of 200 to 1000 nM.
Turning to `CN1CCN(C(=O)Cn2c(-c3ccoc3)c(C3CCCCC3)c3ccc(C(=O)NCc4ccc(S(N)(=O)=O)cc4)cc32)CC1` [Example 4032], the IC50 was < 200 nM.
As for `CN1CCN(C(=O)Cn2c(-c3ccoc3)c(C3CCCCC3)c3ccc(C(=O)NC4CCS(=O)(=O)C4)cc32)CC1` (stereo not shown) [Example 4033], the IC50 fell in the range of 1000 to 10000 nM.
On to `CN1CCN(C(=O)Cn2c(-c3ccoc3)c(C3CCCCC3)c3ccc(C(=O)NCC4CC4)cc32)CC1` [Example 4034], for which the IC50 is 200 to 1000 nM.
The molecule `CN1CCN(C(=O)Cn2c(-c3ccoc3)c(C3CCCCC3)c3ccc(C(=O)NCCc4ccncc4)cc32)CC1` [Example 4035] returned an IC50 of 200 to 1000 nM.
The molecule `CN1CCN(C(=O)Cn2c(-c3ccoc3)c(C3CCCCC3)c3ccc(C(=O)NC4CCN(Cc5ccccc5)C4)cc32)CC1` (stereo not shown) [Example 4036] showed an IC50 of 200 to 1000 nM.
`CN1CCN(C(=O)Cn2c(-c3ccoc3)c(C3CCCCC3)c3ccc(C(=O)NC(C)(C)Cc4ccccc4)cc32)CC1` [Example 4037] displayed an IC50 of 1000 to 10000 nM.
Turning to `C[C@@H](NC(=O)c1ccc2c(C3CCCCC3)c(-c3ccoc3)n(CC(=O)N3CCN(C)CC3)c2c1)c1ccccc1` [Example 4039], the IC50 was in the range of 200 to 1000 nM.
With `CN1CCN(C(=O)Cn2c(-c3ccoc3)c(C3CCCCC3)c3ccc(C(=O)NCCc4cccnc4)cc32)CC1` [Example 4040], the 50% inhibitory concentration (IC50) was 200 to 1000 nM.
In the case of `CN1CCN(C(=O)Cn2c(-c3ccoc3)c(C3CCCCC3)c3ccc(C(=O)NCc4ccc(S(C)(=O)=O)cc4)cc32)CC1` [Example 4041], the IC50 is < 200 nM.
The figure for `COc1cccc([C@@H](C)NC(=O)c2ccc3c(C4CCCCC4)c(-c4ccoc4)n(CC(=O)N4CCN(C)CC4)c3c2)c1` [Example 4042] is < 200 nM; for `COc1ccc([C@@H](C)NC(=O)c2ccc3c(C4CCCCC4)c(-c4ccoc4)n(CC(=O)N4CCN(C)CC4)c3c2)cc1` [Example 4043] it is < 200 nM.
Regarding `Cc1cnc(CNC(=O)c2ccc3c(C4CCCCC4)c(-c4ccoc4)n(CC(=O)N4CCN(C)CC4)c3c2)cn1` [Example 4044], the IC50 lay within 200 to 1000 nM.
The figure for `O=C(NCc1ccc2c(c1)OCO2)c1ccc2c(C3CCCCC3)c(-c3ccoc3)n(CC(=O)N3CCOCC3)c2c1` [Example 4045] is 200 to 1000 nM; for `O=C(NCc1ccccn1)c1ccc2c(C3CCCCC3)c(-c3ccoc3)n(CC(=O)N3CCOCC3)c2c1` [Example 4046] it is 200 to 1000 nM; for `O=C(NCc1ccccc1)c1ccc2c(C3CCCCC3)c(-c3ccoc3)n(CC(=O)N3CCOCC3)c2c1` [Example 4047] it is 200 to 1000 nM.
The same measure for `O=C(NCCc1ccccc1)c1ccc2c(C3CCCCC3)c(-c3ccoc3)n(CC(=O)N3CCOCC3)c2c1` [Example 4048]: 1000 to 10000 nM; for `CNC(=O)c1ccc2c(C3CCCCC3)c(-c3ccoc3)n(CC(=O)N3CCOCC3)c2c1` [Example 4049]: 200 to 1000 nM.
On to `O=C(NCCc1ccncc1)c1ccc2c(C3CCCCC3)c(-c3ccoc3)n(CC(=O)N3CCOCC3)c2c1` [Example 4050], for which the IC50 fell in the range of 200 to 1000 nM.
Consider `COc1ccc([C@@H](C)NC(=O)c2ccc3c(C4CCCCC4)c(-c4ccoc4)n(CC(=O)N4CCOCC4)c3c2)cc1` [Example 4051], for which the IC50 is 200 to 1000 nM.
Molecule `CN(C)C(=O)Cn1c(-c2ccoc2)c(C2CCCCC2)c2ccc(C(=O)NCc3ccc4c(c3)OCO4)cc21` [Example 4052] showed an IC50 of 200 to 1000 nM.
`CN(C)C(=O)Cn1c(-c2ccoc2)c(C2CCCCC2)c2ccc(C(=O)NCc3ccccn3)cc21` [Example 4053]: the IC50 was in the range of 200 to 1000 nM.
The figure for `CN(C)C(=O)Cn1c(-c2ccoc2)c(C2CCCCC2)c2ccc(C(=O)NCc3ccccc3)cc21` [Example 4054] is 200 to 1000 nM; for `CN(C)C(=O)Cn1c(-c2ccoc2)c(C2CCCCC2)c2ccc(C(=O)NCCc3ccccc3)cc21` [Example 4055] it is 200 to 1000 nM; for `CNC(=O)c1ccc2c(C3CCCCC3)c(-c3ccoc3)n(CC(=O)N(C)C)c2c1` [Example 4056] it is 200 to 1000 nM.
`CN(C)C(=O)Cn1c(-c2ccoc2)c(C2CCCCC2)c2ccc(C(=O)NCCc3ccncc3)cc21` [Example 4057] displayed an IC50 of 200 to 1000 nM.
As for `C[C@@H](NC(=O)c1ccc2c(C3CCCCC3)c(-c3ccoc3)n(CC(=O)N(C)C)c2c1)c1ccccc1` [Example 4058], the IC50 was < 200 nM.
`COc1ccc([C@@H](C)NC(=O)c2ccc3c(C4CCCCC4)c(-c4ccoc4)n(CC(=O)N(C)C)c3c2)cc1` [Example 4059]: the IC50 is < 200 nM.
The molecule `CC(C)(NC(=O)c1ccc2c(C3CCCCC3)c(-c3ccoc3)n(CC(=O)N3CCC(N4CCCC4)CC3)c2c1)c1ccccc1` [Example 4060] returned an IC50 of 200 to 1000 nM.
The same measure for `O=C(NCc1ccc(O)c(O)c1)c1ccc2c(C3CCCCC3)c(-c3ccoc3)n(CC(=O)N3CCOCC3)c2c1` [Example 4062]: < 200 nM; for `COc1ccc([C@@H](C)NC(=O)c2ccc3c(C4CCCCC4)c(-c4ccoc4)n(CC(=O)N4CCOCC4)c3c2)cc1OC` [Example 4063]: 200 to 1000 nM.

As usually defined, the IC50 is the concentration that inhibits the measured activity by half. The low end stands for higher potency, the high end for lower potency.
